Measured values published in patent publication US9113629B2, “4-amino-6-(4-substituted-phenyl)-picolinates and 6-amino-2-(4-substituted-phenyl)-pyrimidine-4-carboxylates and their use as herbicides” (DOW AGROSCIENCES LLC, priority 2013, dated 2015).

These compounds were tested on Key Grass and Sedge Weeds as well as Grass Crops (assay: Post-emergent Test II herbicidal activity (Table 6)). Conditions: Triticum aestivum, post-emergence, 336 h, TRZSS (wheat), application rate 70 g ai/ha, read-out: Visual Growth Reduction (%) 14 Days After Application, TRZSS.
Assay type: in vivo
Outline: (§1)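 Plants grown in Metro-Mix 360 (pH 6.0–6.8) in a greenhouse (~15 h photoperiod, 23–29 °C day) to first or second true leaf stage, then sprayed with compound in acetone/DMSO/aqueous crop-oil-surfactant carrier at 187 L/ha by track sprayer. Injury visually scored 0–100% versus untreated plants after 14 d.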
Compound COC(=O)c1nc(-c2ccc(Br)c(F)c2)c(Cl)c(N)c1Cl [Compound 73, Methyl 4-amino-6-(4-bromo-3-fluorophenyl)-3,5-dichloropicolinate] has a pest or weed control at 70 g/ha of 60 to 74%.

Same assay, conditions: Triticum aestivum, post-emergence, 336 h, TRZSS (wheat), application rate 140 g ai/ha, read-out: Visual Growth Reduction (%) 14 Days After Application, TRZSS
For COC(=O)c1nc(-c2ccc(Br)c(F)c2)c(Cl)c(N)c1Cl [Compound 73, Methyl 4-amino-6-(4-bromo-3-fluorophenyl)-3,5-dichloropicolinate], the pest or weed control at 140 g/ha was 60 to 74%.

Same assay, conditions: post-emergence, 336 h, CYPES: yellow nutsedge (Cyperus esculentus), application rate 70 g ai/ha, read-out: Visual Growth Reduction (%) 14 Days After Application, CYPES
Work on COC(=O)c1nc(-c2ccc(Br)c(F)c2)c(Cl)c(N)c1Cl [Compound 73, Methyl 4-amino-6-(4-bromo-3-fluorophenyl)-3,5-dichloropicolinate] yielded a pest or weed control at 70 g/ha of 95 to 100%.

Same assay, conditions: post-emergence, 336 h, CYPES: yellow nutsedge (Cyperus esculentus), application rate 140 g ai/ha, read-out: Visual Growth Reduction (%) 14 Days After Application, CYPES
Compound COC(=O)c1nc(-c2ccc(Br)c(F)c2)c(Cl)c(N)c1Cl [Compound 73, Methyl 4-amino-6-(4-bromo-3-fluorophenyl)-3,5-dichloropicolinate] has a pest or weed control at 140 g/ha of 95 to 100%.

Same assay, conditions: post-emergence, 336 h, DIGSA: crabgrass (Digitaria sanguinalis), application rate 70 g ai/ha, read-out: Visual Growth Reduction (%) 14 Days After Application, DIGSA
For COC(=O)c1nc(-c2ccc(Br)c(F)c2)c(Cl)c(N)c1Cl [Compound 73, Methyl 4-amino-6-(4-bromo-3-fluorophenyl)-3,5-dichloropicolinate], the pest or weed control at 70 g/ha was 0 to 29%.

Same assay, conditions: post-emergence, 336 h, DIGSA: crabgrass (Digitaria sanguinalis), application rate 140 g ai/ha, read-out: Visual Growth Reduction (%) 14 Days After Application, DIGSA
Work on COC(=O)c1nc(-c2ccc(Br)c(F)c2)c(Cl)c(N)c1Cl [Compound 73, Methyl 4-amino-6-(4-bromo-3-fluorophenyl)-3,5-dichloropicolinate] yielded a pest or weed control at 140 g/ha of 45 to 59%.

Same assay, conditions: post-emergence, 336 h, ECHCG: barnyardgrass (Echinochloa crus-galli), application rate 70 g ai/ha, read-out: Visual Growth Reduction (%) 14 Days After Application, ECHCG
COC(=O)c1nc(-c2ccc(Br)c(F)c2)c(Cl)c(N)c1Cl [Compound 73, Methyl 4-amino-6-(4-bromo-3-fluorophenyl)-3,5-dichloropicolinate] showed a pest or weed control at 70 g/ha of 0 to 29%.

Same assay, conditions: post-emergence, 336 h, ECHCG: barnyardgrass (Echinochloa crus-galli), application rate 140 g ai/ha, read-out: Visual Growth Reduction (%) 14 Days After Application, ECHCG
In the case of COC(=O)c1nc(-c2ccc(Br)c(F)c2)c(Cl)c(N)c1Cl [Compound 73, Methyl 4-amino-6-(4-bromo-3-fluorophenyl)-3,5-dichloropicolinate], the pest or weed control at 140 g/ha was 60 to 74%.

Same assay, conditions: post-emergence, 336 h, ORYSA: rice (Oryza sativa), application rate 70 g ai/ha, read-out: Visual Growth Reduction (%) 14 Days After Application, ORYSA
Compound COC(=O)c1nc(-c2ccc(Br)c(F)c2)c(Cl)c(N)c1Cl [Compound 73, Methyl 4-amino-6-(4-bromo-3-fluorophenyl)-3,5-dichloropicolinate] has a pest or weed control at 70 g/ha of 0 to 29%.

Same assay, conditions: post-emergence, 336 h, ORYSA: rice (Oryza sativa), application rate 140 g ai/ha, read-out: Visual Growth Reduction (%) 14 Days After Application, ORYSA
Compound COC(=O)c1nc(-c2ccc(Br)c(F)c2)c(Cl)c(N)c1Cl [Compound 73, Methyl 4-amino-6-(4-bromo-3-fluorophenyl)-3,5-dichloropicolinate] has a pest or weed control at 140 g/ha of 0 to 29%.

Same assay, conditions: post-emergence, 336 h, SETFA: giant foxtail (Setaria faberi), application rate 70 g ai/ha, read-out: Visual Growth Reduction (%) 14 Days After Application, SETFA
For COC(=O)c1nc(-c2ccc(Br)c(F)c2)c(Cl)c(N)c1Cl [Compound 73, Methyl 4-amino-6-(4-bromo-3-fluorophenyl)-3,5-dichloropicolinate], the pest or weed control at 70 g/ha was 60 to 74%.

Same assay, conditions: post-emergence, 336 h, SETFA: giant foxtail (Setaria faberi), application rate 140 g ai/ha, read-out: Visual Growth Reduction (%) 14 Days After Application, SETFA
Work on COC(=O)c1nc(-c2ccc(Br)c(F)c2)c(Cl)c(N)c1Cl [Compound 73, Methyl 4-amino-6-(4-bromo-3-fluorophenyl)-3,5-dichloropicolinate] yielded a pest or weed control at 140 g/ha of 60 to 74%.

Same assay, conditions: post-emergence, 336 h, SORVU: grain sorghum (Sorghum vulgare), application rate 70 g ai/ha, read-out: Visual Growth Reduction (%) 14 Days After Application, SORVU
In the case of COC(=O)c1nc(-c2ccc(Br)c(F)c2)c(Cl)c(N)c1Cl [Compound 73, Methyl 4-amino-6-(4-bromo-3-fluorophenyl)-3,5-dichloropicolinate], the pest or weed control at 70 g/ha was 85 to 94%.

Same assay, conditions: post-emergence, 336 h, SORVU: grain sorghum (Sorghum vulgare), application rate 140 g ai/ha, read-out: Visual Growth Reduction (%) 14 Days After Application, SORVU
COC(=O)c1nc(-c2ccc(Br)c(F)c2)c(Cl)c(N)c1Cl [Compound 73, Methyl 4-amino-6-(4-bromo-3-fluorophenyl)-3,5-dichloropicolinate] showed a pest or weed control at 140 g/ha of 85 to 94%.

Same assay, conditions: post-emergence, 336 h, ZEAMX: maize, corn (Zea mays), application rate 70 g ai/ha, read-out: Visual Growth Reduction (%) 14 Days After Application, ZEAMX
Compound COC(=O)c1nc(-c2ccc(Br)c(F)c2)c(Cl)c(N)c1Cl [Compound 73, Methyl 4-amino-6-(4-bromo-3-fluorophenyl)-3,5-dichloropicolinate] has a pest or weed control at 70 g/ha of 60 to 74%.

Same assay, conditions: post-emergence, 336 h, ZEAMX: maize, corn (Zea mays), application rate 140 g ai/ha, read-out: Visual Growth Reduction (%) 14 Days After Application, ZEAMX
With COC(=O)c1nc(-c2ccc(Br)c(F)c2)c(Cl)c(N)c1Cl [Compound 73, Methyl 4-amino-6-(4-bromo-3-fluorophenyl)-3,5-dichloropicolinate] the pest or weed control at 140 g/ha was 60 to 74%.

What follows are compounds tested on Key Broadleaf Weed and Crop Species (assay: Post-emergent Test II herbicidal activity (Table 5)). Conditions: post-emergence, 336 h; ABUTH: velvetleaf (Abutilon theophrasti); 70 g ai/ha; post-emergent; 14 days after application; read-out: Visual Growth Reduction (%) 14 Days After Application ABUTH.
Assay type: in vivo
Outline: as §1
Work on COC(=O)c1nc(-c2ccc(Br)c(F)c2)c(Cl)c(N)c1Cl [Compound 73, Methyl 4-amino-6-(4-bromo-3-fluorophenyl)-3,5-dichloropicolinate] yielded a pest or weed control at 70 g/ha of 85 to 94%.

Same assay, conditions: post-emergence, 336 h; ABUTH: velvetleaf (Abutilon theophrasti); 140 g ai/ha; post-emergent; 14 days after application; read-out: Visual Growth Reduction (%) 14 Days After Application ABUTH
COC(=O)c1nc(-c2ccc(Br)c(F)c2)c(Cl)c(N)c1Cl [Compound 73, Methyl 4-amino-6-(4-bromo-3-fluorophenyl)-3,5-dichloropicolinate] gave a pest or weed control at 140 g/ha of 85 to 94%.

Same assay, conditions: post-emergence, 336 h; AMARE: redroot pigweed (Amaranthus retroflexus); 70 g ai/ha; post-emergent; 14 days after application; read-out: Visual Growth Reduction (%) 14 Days After Application AMARE
With COC(=O)c1nc(-c2ccc(Br)c(F)c2)c(Cl)c(N)c1Cl [Compound 73, Methyl 4-amino-6-(4-bromo-3-fluorophenyl)-3,5-dichloropicolinate] the pest or weed control at 70 g/ha was 95 to 100%.

Same assay, conditions: post-emergence, 336 h; AMARE: redroot pigweed (Amaranthus retroflexus); 140 g ai/ha; post-emergent; 14 days after application; read-out: Visual Growth Reduction (%) 14 Days After Application AMARE
In the case of COC(=O)c1nc(-c2ccc(Br)c(F)c2)c(Cl)c(N)c1Cl [Compound 73, Methyl 4-amino-6-(4-bromo-3-fluorophenyl)-3,5-dichloropicolinate], the pest or weed control at 140 g/ha was 95 to 100%.

Same assay, conditions: post-emergence, 336 h; BRSNN: oilseed-rape, canola (Brassica napus); 70 g ai/ha; post-emergent; 14 days after application; read-out: Visual Growth Reduction (%) 14 Days After Application BRSNN
Work on COC(=O)c1nc(-c2ccc(Br)c(F)c2)c(Cl)c(N)c1Cl [Compound 73, Methyl 4-amino-6-(4-bromo-3-fluorophenyl)-3,5-dichloropicolinate] yielded a pest or weed control at 70 g/ha of 95 to 100%.

Same assay, conditions: post-emergence, 336 h; BRSNN: oilseed-rape, canola (Brassica napus); 140 g ai/ha; post-emergent; 14 days after application; read-out: Visual Growth Reduction (%) 14 Days After Application BRSNN
Work on COC(=O)c1nc(-c2ccc(Br)c(F)c2)c(Cl)c(N)c1Cl [Compound 73, Methyl 4-amino-6-(4-bromo-3-fluorophenyl)-3,5-dichloropicolinate] yielded a pest or weed control at 140 g/ha of 95 to 100%.

Same assay, conditions: post-emergence, 336 h; CHEAL: lambsquarters (Chenopodium album); 70 g ai/ha; post-emergent; 14 days after application; read-out: Visual Growth Reduction (%) 14 Days After Application CHEAL
Compound COC(=O)c1nc(-c2ccc(Br)c(F)c2)c(Cl)c(N)c1Cl [Compound 73, Methyl 4-amino-6-(4-bromo-3-fluorophenyl)-3,5-dichloropicolinate] has a pest or weed control at 70 g/ha of 85 to 94%.

Same assay, conditions: post-emergence, 336 h; CHEAL: lambsquarters (Chenopodium album); 140 g ai/ha; post-emergent; 14 days after application; read-out: Visual Growth Reduction (%) 14 Days After Application CHEAL
COC(=O)c1nc(-c2ccc(Br)c(F)c2)c(Cl)c(N)c1Cl [Compound 73, Methyl 4-amino-6-(4-bromo-3-fluorophenyl)-3,5-dichloropicolinate] was tested, and the pest or weed control at 140 g/ha was 85 to 94%.

Same assay, conditions: post-emergence, 336 h; EPHHL: wild poinsettia (Euphorbia heterophylla); 70 g ai/ha; post-emergent; 14 days after application; read-out: Visual Growth Reduction (%) 14 Days After Application EPHHL
COC(=O)c1nc(-c2ccc(Br)c(F)c2)c(Cl)c(N)c1Cl [Compound 73, Methyl 4-amino-6-(4-bromo-3-fluorophenyl)-3,5-dichloropicolinate] gave a pest or weed control at 70 g/ha of 45 to 59%.

Same assay, conditions: post-emergence, 336 h; EPHHL: wild poinsettia (Euphorbia heterophylla); 140 g ai/ha; post-emergent; 14 days after application; read-out: Visual Growth Reduction (%) 14 Days After Application EPHHL
Compound COC(=O)c1nc(-c2ccc(Br)c(F)c2)c(Cl)c(N)c1Cl [Compound 73, Methyl 4-amino-6-(4-bromo-3-fluorophenyl)-3,5-dichloropicolinate] has a pest or weed control at 140 g/ha of 60 to 74%.

Same assay, conditions: post-emergence, 336 h; HELAN: sunflower (Helianthus annuus); 70 g ai/ha; post-emergent; 14 days after application; read-out: Visual Growth Reduction (%) 14 Days After Application HELAN
In the case of COC(=O)c1nc(-c2ccc(Br)c(F)c2)c(Cl)c(N)c1Cl [Compound 73, Methyl 4-amino-6-(4-bromo-3-fluorophenyl)-3,5-dichloropicolinate], the pest or weed control at 70 g/ha was 95 to 100%.

Same assay, conditions: post-emergence, 336 h; HELAN: sunflower (Helianthus annuus); 140 g ai/ha; post-emergent; 14 days after application; read-out: Visual Growth Reduction (%) 14 Days After Application HELAN
COC(=O)c1nc(-c2ccc(Br)c(F)c2)c(Cl)c(N)c1Cl [Compound 73, Methyl 4-amino-6-(4-bromo-3-fluorophenyl)-3,5-dichloropicolinate] was tested, and the pest or weed control at 140 g/ha was 95 to 100%.

Same assay, conditions: post-emergence, 336 h; VIOTR: wild pansy (Viola tricolor); 70 g ai/ha; post-emergent; 14 days after application; read-out: Visual Growth Reduction (%) 14 Days After Application VIOTR
COC(=O)c1nc(-c2ccc(Br)c(F)c2)c(Cl)c(N)c1Cl [Compound 73, Methyl 4-amino-6-(4-bromo-3-fluorophenyl)-3,5-dichloropicolinate] gave a pest or weed control at 70 g/ha of 45 to 59%.

Same assay, conditions: post-emergence, 336 h; VIOTR: wild pansy (Viola tricolor); 140 g ai/ha; post-emergent; 14 days after application; read-out: Visual Growth Reduction (%) 14 Days After Application VIOTR
With COC(=O)c1nc(-c2ccc(Br)c(F)c2)c(Cl)c(N)c1Cl [Compound 73, Methyl 4-amino-6-(4-bromo-3-fluorophenyl)-3,5-dichloropicolinate] the pest or weed control at 140 g/ha was 45 to 59%.
